Measured values from patent US20100179153A1, “Bicyclic S1P Receptor Modulators” (priority 2007, published 2010).

Assays:
Format in all cases: biochemical
human S1P1 receptor = target: T1, human S1P1 receptor (Homo sapiens, UniProt P21453); test: 35S-GTPγS binding assay (SPA), S1P1; settings: membrane protein from transfected CHO cells
T1 construct: expressed in transfected cells; host or cells: CHO-K1 (ATCC CCL 61); RH7777 may also be used
Description: (§1) Test 1: ^355-GTPγS Binding Assay
(§2) The S1P receptor modulating properties of an agent of the invention are tested on the human S1P1, S1P2, S1P3, S1P4 and S1P5, respectively, receptor subtypes. The functional receptor activation is assessed by quantifying the compound-induced ^35S-GTPγS binding to membrane protein prepared from transfected heterologous cells stably expressing the appropriate S1P receptor subtype. CHO cells (CHO-K1, Chinese hamster, ATCC no. CCL 61) are used [RH7777 cells (rat Morris hepatoma, ATCC no. CRL 1601) may also be used]. The membrane protein is prepared from wild-type cells and from different cell clones expressing the appropriate S1P receptor subtype. The assay technology used is SPA (scintillation proximity based assay). […] The luminescence of SPA beads triggered by membrane bound ^35S-GTPγS is quantified with a TOPcount plate reader (Packard). To evaluate the S1P receptor modulation, the stimulation (in %) compared to the baseline is calculated as the binding in the presence of the compound divided by the binding in the absence of a ligand, multiplied by 100. […] The selectivity of the compound towards the S1P receptor subtypes is determined by measuring for each of the different S1P receptor subtypes the level of ^35S-GTPγS binding in the presence of the compound using each of the different membrane proteins.

human S1P4 receptor = target: T2, human S1P4 receptor (Homo sapiens, UniProt O95977); test: 35S-GTPγS binding assay (SPA), S1P4; settings: membrane protein from transfected CHO cells
T2 construct: expressed in transfected cells; host or cells: CHO-K1 (ATCC CCL 61); RH7777 may also be used
T2 sequence (O95977 1-384): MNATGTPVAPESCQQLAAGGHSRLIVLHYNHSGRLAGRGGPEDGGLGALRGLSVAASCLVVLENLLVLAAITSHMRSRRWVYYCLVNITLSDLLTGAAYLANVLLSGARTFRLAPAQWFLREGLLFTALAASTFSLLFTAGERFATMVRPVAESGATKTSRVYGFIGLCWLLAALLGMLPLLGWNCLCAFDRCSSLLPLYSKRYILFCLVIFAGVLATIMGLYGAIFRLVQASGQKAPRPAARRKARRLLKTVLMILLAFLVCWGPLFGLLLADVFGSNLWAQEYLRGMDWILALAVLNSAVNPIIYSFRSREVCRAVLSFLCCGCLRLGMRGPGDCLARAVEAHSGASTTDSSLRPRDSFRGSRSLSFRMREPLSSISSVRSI
Description: as §1, §2

human S1P5 receptor = target: T3, human S1P5 receptor (Homo sapiens, UniProt Q9H228); test: 35S-GTPγS binding assay (SPA), S1P5; settings: membrane protein from transfected CHO cells; for EC50: read-out: EC50 for receptor subtype S1P5
T3 construct: expressed in transfected cells; host or cells: CHO-K1 (ATCC CCL 61); RH7777 may also be used
Description: as §1
The S1P receptor modulating properties of an agent of the invention are tested on the human S1P1, S1P2, S1P3, S1P4 and S1P5, respectively, receptor subtypes. The functional receptor activation is assessed by quantifying the compound-induced ^35S-GTPγS binding to membrane protein prepared from transfected heterologous cells stably expressing the appropriate S1P receptor subtype. CHO cells (CHO-K1, Chinese hamster, ATCC no. CCL 61) are used [RH7777 cells (rat Morris hepatoma, ATCC no. CRL 1601) may also be used]. The membrane protein is prepared from wild-type cells and from different cell clones expressing the appropriate S1P receptor subtype. The assay technology used is SPA (scintillation proximity based assay). A DMSO solution of the test compound is serially diluted and added to SPA-bead (Amersham-Pharmacia) immobilised S1P receptor subtype expressing membrane protein (1 to 20 μg/well) in the presence of 50 mM HEPES, 100 mM NaCl, 10 mM MgCl2, 10 μM GDP, 0.1% fat free BSA and 0.2 nM ^35S-GTPγS (1200 Ci/mmol) (pH 7.4). After incubation in 96 well microtiter plates at room temperature for 120 minutes, the unbound ^35S-GTPγS is separated by centrifugation. The luminescence of SPA beads triggered by membrane bound ^35S-GTPγS is quantified with a TOPcount plate reader (Packard). To evaluate the S1P receptor modulation, the stimulation (in %) compared to the baseline is calculated as the binding in the presence of the compound divided by the binding in the absence of a ligand, multiplied by 100. Dose response curves are plotted using a non-linear regression curve fitting program, and the EC50 is defined as the concentration of the compound required to give 50% of its maximum stimulation. Preferably, the EC50 value of an agent of the invention in this test is 10′000 nM or less. The selectivity of the compound towards the S1P receptor subtypes is determined by measuring for each of the different S1P receptor subtypes the level of ^35S-GTPγS binding in the presence of the compound using each of the different membrane proteins.

T3 sequence (Q9H228 whole entry): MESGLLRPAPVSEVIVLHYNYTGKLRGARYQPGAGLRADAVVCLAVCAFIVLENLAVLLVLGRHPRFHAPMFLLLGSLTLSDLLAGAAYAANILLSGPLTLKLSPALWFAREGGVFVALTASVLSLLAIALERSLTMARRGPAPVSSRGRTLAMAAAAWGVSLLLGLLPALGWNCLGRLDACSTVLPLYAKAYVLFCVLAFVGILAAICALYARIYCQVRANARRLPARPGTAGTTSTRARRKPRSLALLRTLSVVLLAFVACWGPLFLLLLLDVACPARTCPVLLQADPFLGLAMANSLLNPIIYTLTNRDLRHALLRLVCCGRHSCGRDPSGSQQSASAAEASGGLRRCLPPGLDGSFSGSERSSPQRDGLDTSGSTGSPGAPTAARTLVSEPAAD
T1 sequence (P21453 whole entry): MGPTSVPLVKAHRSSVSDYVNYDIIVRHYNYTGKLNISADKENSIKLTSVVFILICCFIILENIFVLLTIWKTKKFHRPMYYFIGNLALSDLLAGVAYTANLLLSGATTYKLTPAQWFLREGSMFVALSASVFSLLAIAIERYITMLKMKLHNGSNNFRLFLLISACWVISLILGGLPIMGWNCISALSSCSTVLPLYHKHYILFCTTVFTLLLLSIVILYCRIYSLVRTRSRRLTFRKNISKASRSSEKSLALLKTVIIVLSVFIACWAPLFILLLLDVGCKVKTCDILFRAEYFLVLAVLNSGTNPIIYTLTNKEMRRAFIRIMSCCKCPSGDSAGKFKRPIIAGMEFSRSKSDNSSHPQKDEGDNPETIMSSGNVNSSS

SMILES: Cc1cc(F)cc(C)c1Nc1cccc2c(C)n[nH]c(=O)c12 [Example 4, 8-(4-Fluoro-2,6-dimethyl-phenylamino)-4-methyl-2H-phthalazin-1-one]
- efficacy at S1P1 (human S1P1 receptor): 58%
- efficacy at S1P4 (human S1P4 receptor): 74%
- EC50 (human S1P4 receptor; read-out: EC50 for receptor subtype S1P4): 929 nM
- efficacy at S1P5 (human S1P5 receptor): 80%
- EC50 (human S1P5 receptor): 117 nM

SMILES: CCc1cc(F)cc(CC)c1Nc1cccc2c(C)n[nH]c(=O)c12 [Example 8, 8-(2,6-Diethyl-4-fluoro-phenylamino)-4-methyl-2H-phthalazin-1-one]
- efficacy at S1P1 (human S1P1 receptor): 73%
- efficacy at S1P5 (human S1P5 receptor): 81%
- EC50 (human S1P5 receptor): 27 nM
